One series relates to 11β-HSD-1. Put plainly: 11β-reductase activity in human monocytes differentiating into macrophages, incubated with IL-4 (FIG. 8). The format is cell-based. To be noted: range of doses of IL-4, human monocytes at initiation of differentiation. An excerpt:
Human Monocytes—monocytes isolated from peripheral blood by dextran sedimentation and percoll gradient methods. Monocytes were differentiated to Mφ @4×10^6 cells/ml over 4 days in Iscoves/10% autologous serum.
(§1) Samples were taken at different times and ^3H-cort and ^3H-11-DHC were separated from media samples by thin layer chromatography and analysed by phosphorimaging.
The manner in which differentiating macrophages acquire 11β-HSD-1 activity can be influenced by cytokines. In the experiment shown in FIG. 8, human monocytes at the initiation of differentiation into macrophages were incubated with a range of doses of IL-4. 11β-reductase activity was measured by incubation with tritiated 11-DHC.

For series [1], the system named is murine peripheral macrophages. The series can be described thus: Phagocytosis by murine peripheral macrophages (FIG. 3). It is filed as cell-based. The following applies: for phagocytosis performance of macrophages: over 24 hours. As to the method:
(§2) Fresh PMN were isolated from peripheral blood and aged to apoptosis in Teflon wells over 24 hrs in Iscoves/10% autologous serum. Mφ were treated with glucocorticoids as described in the figures. Mφ and aPMN were washed with 1×PBS and interacted in serum free Iscoves for 30 mins at 37° C. The cell layer was gently washed to remove […] cells, fixed in 1×Formalin and stained with PMN selective myeloperoxidase.

In another series the test system is murine BMD Mφ. Put plainly: Phagocytosis of apoptotic PMN by BMD Mφ from control and 11β-HSD-/- mice (FIG. 4). The format is cell-based. The following applies: for enhanced phagocytic effect in 11βHSD-1-/- Mφ: 11βHSD-1-/- macrophages versus control; for phagocytosis of apoptotic PMN by BMD Mφ: 48 hrs treatment, n=4/group. As to the method:
Bone Marrow Derived Macrophages (BMD Mφ)—bone marrow was extracted from femurs (C57BI/6 mice) and cultured @4×10^5 cells/ml in DMEM/10% FCS/10% L929 cell line supernatant for 8 days.
as §2
Transgenic 11β-HSD^−/− mice have been described previously (Kotelevstev et al., PNAS (USA) 94:14924-14929). Macrophages are isolated from control and 11β-HSD^−/− mice and assayed in a PMN phagocytosis assay as described above.

The next series has as its target T1, 11β-HSD1 (Mus musculus, UniProt P50172).
T1 construct: endogenous in cells; host or cells: mouse macrophages (probably thioglycollate-elicited peritoneal macrophages from C57Bl/6 mice)
The series can be described thus: Conversion of 3H-11-dehydrocorticosterone to corticosterone in macrophage cultures (FIG. 2b, 2c). The format is cell-based.
Text: as §1

A further series relates to blood glucose levels. The following applies: oral administration, two mouse models of diabetes; cited from earlier work.

The source of these data is patent publication US20040067222A1, “Regulation of glucocorticoid concentration” (priority 2001, published 2004).

T1 sequence (P50172 whole entry): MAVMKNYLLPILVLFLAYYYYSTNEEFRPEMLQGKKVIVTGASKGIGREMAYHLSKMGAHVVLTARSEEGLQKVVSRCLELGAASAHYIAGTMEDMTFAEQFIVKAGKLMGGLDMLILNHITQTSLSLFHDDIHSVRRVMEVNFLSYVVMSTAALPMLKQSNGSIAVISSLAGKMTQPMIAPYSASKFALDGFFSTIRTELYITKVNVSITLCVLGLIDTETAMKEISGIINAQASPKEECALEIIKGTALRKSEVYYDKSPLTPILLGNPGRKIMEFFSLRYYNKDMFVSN

Turning to “IL-4: cytokine capable of inducing 11β-HSD 1 expression”, the “conversion of inert 11-DHC to active corticosterone (11β-reductase activity)” value with 11β-HSD-1 is recorded as “dose-relatedly increased”.
For `C[C@]12CC(=O)[C@H]3[C@@H](CCC4=CC(=O)CC[C@@]43C)[C@@H]1CC[C@@H]2C(=O)CO` [11-dehydrocorticosterone], the “phagocytosis performance of macrophages” value in series [1] is reported as “two-fold”. Further, in the series with murine BMD Mφ, the “enhanced phagocytic effect in 11βHSD-1-/- Mφ” value was “abrogated” and the “phagocytosis of apoptotic PMN by BMD Mφ” value is “enhancement of phagocytosis”. In addition, the “conversion of inactive 11-dehydrocorticosterone (A) to active corticosterone (B)” value at 11β-HSD1 (mouse macrophages, over a 24 hour period) was “clearly shows conversion of (A) to (B)”.
`C[C@]12C[C@H](O)[C@H]3[C@@H](CCC4=CC(=O)CC[C@@]43C)[C@@H]1CC[C@@H]2C(=O)CO` [corticosterone]: in series [1], the “phagocytosis performance of macrophages” value is given as “two-fold”. Further, in the series on murine BMD Mφ, the “enhanced phagocytic effect in 11βHSD-1-/- Mφ” value is recorded as “no effect” and the “phagocytosis of apoptotic PMN by BMD Mφ” value is recorded as “enhancement of phagocytosis”.
For `C=CC(C)(C)c1[nH]c2ccccc2c1C1=C(O)C(=O)C(c2c[nH]c3c(CC=C(C)C)cccc23)=C(O)C1=O` [L-783,281], the blood glucose levels result with blood glucose levels is reported as “significant lowering”.
Regarding `CC1(C)[C@@H](OC(=O)CCC(=O)O)CC[C@]2(C)[C@H]3C(=O)C=C4[C@@H]5C[C@@](C)(C(=O)O)CC[C@]5(C)CC[C@@]4(C)[C@]3(C)CC[C@@H]12` [carbenoxolone], in series [1] (macrophages incubated with 11-dehydrocorticosterone plus carbenoxolone), the “effect of inactive 11-dehydrocorticosterone on phagocytosis in the presence of the inhibitor” value is listed as “completely abolishes”. For the same compound, at 11β-HSD1 (high concentrations of carbenoxolone), the “effect on conversion of (A) to (B) by 11β-HSD1” value is reported as “can be blocked”.
